pIC50: −log10 of the molar value.
Columns and labels:
Format in all cases: biochemical
[1] = biological target: T1, recombinant human GBA (beta-glucocerebrosidase) (Homo sapiens, UniProt P04062); test: Beta-glucocerebrosidase (GBA, glucosylceramidase) assay (4-methylumbelliferyl-beta-D-pyranoside substrate, fluorescence)
T1 sequence (P04062 40-536): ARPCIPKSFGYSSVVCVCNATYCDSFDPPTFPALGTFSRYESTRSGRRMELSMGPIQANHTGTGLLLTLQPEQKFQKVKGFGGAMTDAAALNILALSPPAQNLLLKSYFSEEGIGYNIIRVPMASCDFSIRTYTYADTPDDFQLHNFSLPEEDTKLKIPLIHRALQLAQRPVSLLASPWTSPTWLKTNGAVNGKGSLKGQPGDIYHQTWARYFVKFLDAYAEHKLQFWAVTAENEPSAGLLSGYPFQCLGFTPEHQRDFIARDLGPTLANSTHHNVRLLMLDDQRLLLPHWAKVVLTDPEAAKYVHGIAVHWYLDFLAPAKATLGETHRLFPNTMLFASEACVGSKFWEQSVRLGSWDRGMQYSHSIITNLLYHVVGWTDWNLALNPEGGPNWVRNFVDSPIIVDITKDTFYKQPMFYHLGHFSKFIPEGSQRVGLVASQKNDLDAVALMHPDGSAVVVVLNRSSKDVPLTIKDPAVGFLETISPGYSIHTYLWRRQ
Method in brief: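 IC50 by four-parameter fit of percent inhibition, with product fluorescence (365/440 nm) read after a glycine/NaOH pH 10 stop. Compound and commercial recombinant human enzyme were incubated 60 min at 37 °C before a further 60 min at 37 °C with 4-methylumbelliferyl-beta-D-pyranoside substrate.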

[2] = biological target: rat sucrase (partially purified alpha-glucosidase from intestinal rat powder) (Rattus norvegicus, UniProt P23739); test: Intestinal alpha-glucosidase assay, sucrose substrate (Glucose GO Kit)
Method in brief: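 First step: 60 min, 37 °C, compound with partially purified rat intestinal alpha-glucosidase. Next, maltose or sucrose for 30 min at 37 °C, ended at 90 °C for 5 min. Glucose quantified enzymatically; concentration–inhibition data fitted 4-PL for IC50.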

[3] = biological target: recombinant human GAA (acid alpha-glucosidase) (Homo sapiens, UniProt P10253); test: Acid alpha-glucosidase (GAA) assay (4-methylumbelliferyl-alpha-D-pyranoside substrate, fluorescence)
Method in brief: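 IC50 from 4-PL curve fit of percent inhibition, based on fluorescence (365/440 nm) of released methylumbelliferone relative to uninhibited enzyme. Compound dilutions and human GAA incubated 60 min, 37 °C, before 20 min substrate reaction at 37 °C, quenched at pH 10.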

rat sucrase (partially purified alpha-glucosidase from intestinal rat powder), sequence (P23739 whole entry): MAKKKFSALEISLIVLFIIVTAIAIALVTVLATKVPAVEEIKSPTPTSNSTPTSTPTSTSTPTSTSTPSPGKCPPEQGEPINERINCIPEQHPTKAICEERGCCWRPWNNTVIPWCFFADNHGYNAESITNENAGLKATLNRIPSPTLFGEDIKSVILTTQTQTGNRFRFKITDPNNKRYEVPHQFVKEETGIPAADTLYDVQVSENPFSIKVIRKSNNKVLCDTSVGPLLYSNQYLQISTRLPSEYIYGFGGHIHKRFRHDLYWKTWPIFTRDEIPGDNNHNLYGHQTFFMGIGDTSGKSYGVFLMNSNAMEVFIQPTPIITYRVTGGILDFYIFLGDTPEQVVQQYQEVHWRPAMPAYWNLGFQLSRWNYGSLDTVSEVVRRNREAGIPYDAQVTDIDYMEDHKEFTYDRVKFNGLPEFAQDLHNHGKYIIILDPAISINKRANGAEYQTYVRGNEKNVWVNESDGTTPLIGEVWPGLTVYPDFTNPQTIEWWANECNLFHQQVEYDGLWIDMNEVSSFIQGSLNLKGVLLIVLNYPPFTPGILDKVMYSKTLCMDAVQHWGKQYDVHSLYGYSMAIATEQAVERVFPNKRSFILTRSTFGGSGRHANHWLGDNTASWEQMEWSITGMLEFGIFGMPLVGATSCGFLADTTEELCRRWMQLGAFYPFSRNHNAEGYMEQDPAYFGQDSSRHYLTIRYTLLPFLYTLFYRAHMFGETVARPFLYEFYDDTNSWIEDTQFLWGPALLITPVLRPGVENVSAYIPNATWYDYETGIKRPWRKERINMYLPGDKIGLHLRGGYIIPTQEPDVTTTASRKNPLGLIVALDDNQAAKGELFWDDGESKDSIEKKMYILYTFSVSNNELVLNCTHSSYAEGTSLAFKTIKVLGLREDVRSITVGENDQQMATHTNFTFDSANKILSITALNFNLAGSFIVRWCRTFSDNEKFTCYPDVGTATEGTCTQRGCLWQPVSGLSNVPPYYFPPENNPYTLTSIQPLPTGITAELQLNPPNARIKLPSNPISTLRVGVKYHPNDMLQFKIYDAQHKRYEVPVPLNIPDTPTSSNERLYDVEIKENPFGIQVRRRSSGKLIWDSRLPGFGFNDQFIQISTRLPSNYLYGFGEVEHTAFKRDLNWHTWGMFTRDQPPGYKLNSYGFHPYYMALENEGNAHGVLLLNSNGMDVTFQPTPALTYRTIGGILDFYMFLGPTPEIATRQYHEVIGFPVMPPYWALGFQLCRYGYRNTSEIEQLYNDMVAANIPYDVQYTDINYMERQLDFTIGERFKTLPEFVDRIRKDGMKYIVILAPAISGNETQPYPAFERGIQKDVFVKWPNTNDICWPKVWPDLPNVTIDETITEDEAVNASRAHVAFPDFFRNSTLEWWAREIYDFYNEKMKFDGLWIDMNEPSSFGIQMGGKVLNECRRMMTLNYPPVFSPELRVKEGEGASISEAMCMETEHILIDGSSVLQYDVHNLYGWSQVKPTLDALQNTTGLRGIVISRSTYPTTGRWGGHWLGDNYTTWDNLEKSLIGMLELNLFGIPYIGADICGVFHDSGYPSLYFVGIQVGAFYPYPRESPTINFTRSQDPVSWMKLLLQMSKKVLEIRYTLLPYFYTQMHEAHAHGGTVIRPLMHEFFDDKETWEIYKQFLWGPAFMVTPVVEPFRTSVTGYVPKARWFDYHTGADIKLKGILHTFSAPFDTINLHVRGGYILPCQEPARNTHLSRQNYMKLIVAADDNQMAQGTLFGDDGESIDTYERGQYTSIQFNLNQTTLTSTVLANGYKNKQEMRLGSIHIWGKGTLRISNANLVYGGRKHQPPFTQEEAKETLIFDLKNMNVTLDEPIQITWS

SMILES | pIC50 [1] | pIC50 [2] | pIC50 [3]
OC[C@@H]1[C@@H](O)[C@H](O)[C@@H](O)CN1Cc1cccc(CNc2ccc(-c3ccc[nH]3)cc2)c1 [Compound 1082, (2R,3R,4R,5S)-2-(hydroxymethyl)-1-{[3-({[4-(1H-pyrrol-2-yl)phenyl]amino}methyl)phenyl]methyl}piperidine-3,4,5-triol] | 4.86 | 7.60 | 6.06
[N-]=[N+]=Nc1ccc(NCC[C@H]2CC[C@@H](CCN3C[C@H](O)[C@@H](O)[C@H](O)[C@H]3CO)CC2)c([N+](=O)[O-])c1 [Compound 1106, (2R,3R,4R,5S)-2-(hydroxymethyl)-1-{2-[(1s,4s)-4-{2-[(4-azido-2-nitrophenyl)amino]ethyl}cyclohexyl]ethyl}piperidine-3,4,5-triol] | 5.16 | 8.22 | 7.44
OC[C@@H]1[C@@H](O)[C@H](O)[C@@H](O)CN1Cc1cccc(CNc2ccc(-c3cccnn3)cc2)c1 [Compound 1083, (2R,3R,4R,5S)-2-(hydroxymethyl)-1-{[3-({[4-(pyridazin-3-yl)phenyl]amino}methyl)phenyl]methyl}piperidine-3,4,5-triol] | < 4.00 | 7.55 | 5.71
O=[N+]([O-])c1cc(C2=COCCO2)ccc1NCc1ccc(CN2C[C@H](O)[C@@H](O)[C@H](O)[C@H]2CO)cc1 [Compound 1099, (2R,3R,4R,5S)-1-{[4-({[4-(5,6-dihydro-1,4-dioxin-2-yl)-2-nitrophenyl]amino}methyl)phenyl]methyl}-2-(hydroxymethyl)piperidine-3,4,5-triol] | 4.43 | > 9.00 | > 9.00
Cc1cc(NCc2ccc(CN3C[C@H](O)[C@@H](O)[C@H](O)[C@H]3CO)cc2)cc(C2=COCCO2)c1 [Compound 1050, (2R,3R,4R,5S)-1-{[4-({[3-(5,6-dihydro-1,4-dioxin-2-yl)-5-methylphenyl]amino}methyl)phenyl]methyl}-2-(hydroxymethyl)piperidine-3,4,5-triol] | < 4.00 | 8.40 | 6.56
COc1cc(Br)cc(NCCn2cc(CCN3C[C@H](O)[C@@H](O)[C@H](O)[C@H]3CO)c3ccccc32)c1 [Compound 1075, (2R,3R,4R,5S)-1-[2-(1-{2-[(3-bromo-5-methoxyphenyl)amino]ethyl}-1H-indol-3-yl)ethyl]-2-(hydroxymethyl)piperidine-3,4,5-triol] | 5.60 | 6.14 | 5.43
O=[N+]([O-])c1cc(-c2ccncc2)ccc1NCCc1ccc(CCN2C[C@H](O)[C@@H](O)[C@H](O)[C@H]2CO)cc1 [Compound 1110, (2R,3R,4R,5S)-2-(hydroxymethyl)-1-{2-[4-(2-{[2-nitro-4-(pyridin-4-yl)phenyl]amino}ethyl)phenyl]ethyl}piperidine-3,4,5-triol] | 7.32 | 7.20 | 8.15
CN(Cc1ccc(CN2C[C@H](O)[C@@H](O)[C@H](O)[C@H]2CO)cc1)c1cc(-c2cccnn2)cc(C2CC2)c1 [Compound 1001, (2R,3R,4R,5S)-1-{[4-({[3-cyclopropyl-5-(pyridazin-3-yl)phenyl](methyl)amino}methyl)phenyl]methyl}-2-(hydroxymethyl)piperidine-3,4,5-triol] | 4.00 | 7.82 | 7.04
OC[C@@H]1[C@@H](O)[C@H](O)[C@@H](O)CN1CCc1cn(CCNc2ccccc2)c2ccccc12 [Compound 1076, (2R,3R,4R,5S)-2-(hydroxymethyl)-1-(2-{1-[2-(phenylamino)ethyl]-1H-indol-3-yl}ethyl)piperidine-3,4,5-triol] | 5.11 | 6.07 | 5.37
OC[C@@H]1[C@@H](O)[C@H](O)[C@@H](O)CN1CCc1ccc(CCNc2cc(Cl)cc(-c3noc(C4CCC4)n3)c2)cc1 [Compound 1122, (2R,3R,4R,5S)-1-{2-[4-(2-{[3-chloro-5-(5-cyclobutyl-1,2,4-oxadiazol-3-yl)phenyl]amino}ethyl)phenyl]ethyl}-2-(hydroxymethyl)piperidine-3,4,5-triol] | 8.22 | 5.78 | 6.25
O=[N+]([O-])c1cc(-c2cccnn2)ccc1NCc1cccc(CN2C[C@H](O)[C@@H](O)[C@H](O)[C@H]2CO)c1 [Compound 1089, (2R,3R,4R,5S)-2-(hydroxymethyl)-1-{[3-({[2-nitro-4-(pyridazin-3-yl)phenyl]amino}methyl)phenyl]methyl}piperidine-3,4,5-triol] | 4.01 | 7.64 | 6.24
O=[N+]([O-])c1cc(N2CCOCC2)ccc1NCc1ccc(CN2C[C@@H](O)[C@H](O)[C@@H](O)[C@@H]2CO)cc1 (stereo in doubt) [Compound 1069, (2S,3S,4S,5R)-2-(hydroxymethyl)-1-{[4-({[4-(morpholin-4-yl)-2-nitrophenyl]amino}methyl)phenyl]methyl}piperidine-3,4,5-triol] | 5.51 | 8.10 | 7.17
OC[C@@H]1[C@@H](O)[C@H](O)[C@@H](O)CN1Cc1ccc(CNc2ccc(C3=COCCO3)cc2)cc1 [Compound 1093, (2R,3R,4R,5S)-1-{[4-({[4-(5,6-dihydro-1,4-dioxin-2-yl)phenyl]amino}methyl)phenyl]methyl}-2-(hydroxymethyl)piperidine-3,4,5-triol] | 5.13 | 8.15 | 6.97
Cc1cc(NCc2ccc(CN3C[C@H](O)[C@@H](O)[C@H](O)[C@H]3CO)cc2)cc(-c2ncccn2)c1 [Compound 1053, (2R,3R,4R,5S)-2-(hydroxymethyl)-1-{[4-({[3-methyl-5-(pyrimidin-2-yl)phenyl]amino}methyl)phenyl]methyl}piperidine-3,4,5-triol] | < 4.00 | 7.64 | 6.93
N#Cc1cc(NCc2cccc(CN3C[C@H](O)[C@@H](O)[C@H](O)[C@H]3CO)c2)cc(-c2ccc[nH]2)c1 [Compound 1045, 3-(1H-pyrrol-2-yl)-5-{[(3-{[(2R,3R,4R,5S)-3,4,5-trihydroxy-2-(hydroxymethyl)piperidin-1-yl]methyl}phenyl)methyl]amino}benzonitrile] | 4.22 | > 9.00 | 5.71
O=[N+]([O-])c1cc(-c2cccnn2)ccc1NCc1ccc(CN2C[C@H](O)[C@@H](O)[C@H](O)[C@H]2CO)cc1 [Compound 1101, (2R,3R,4R,5S)-2-(hydroxymethyl)-1-{[4-({[2-nitro-4-(pyridazin-3-yl)phenyl]amino}methyl)phenyl]methyl}piperidine-3,4,5-triol] | 4.49 | 8.40 | 7.60
OC[C@@H]1[C@@H](O)[C@H](O)[C@@H](O)CN1Cc1ccc(CNc2ccc(-c3ncccn3)cc2)cc1 [Compound 1096, (2R,3R,4R,5S)-2-(hydroxymethyl)-1-{[4-({[4-(pyrimidin-2-yl)phenyl]amino}methyl)phenyl]methyl}piperidine-3,4,5-triol] | 4.75 | 7.64 | 6.59
N#Cc1cc(NCc2ccc(CN3C[C@H](O)[C@@H](O)[C@H](O)[C@H]3CO)cc2)cc(-c2ncccn2)c1 [Compound 1065, 3-(pyrimidin-2-yl)-5-{[(4-{[(2R,3R,4R,5S)-3,4,5-trihydroxy-2-(hydroxymethyl)piperidin-1-yl]methyl}phenyl)methyl]amino}-benzonitrile] | 4.49 | 7.43 | 7.05

— patent publication US20250197372A1 (priority 2020, published 2025)
